Measured values: ChEMBL document CHEMBL6096697, “Structure-Guided Discovery of Novel N4-(Substituted Thiazol-2-yl)-N2-(4-Substituted phenyl)pyrimidine-2,4-Diamines as Potent CDK2 and CDK9 Dual Inhibitors with High Oral Bioavailability” (J Med Chem, 2025)

Experiments:
[1] = Half life in Sprague-Dawley rat at 10 mg/kg, po measured for 36 hrs by MRM analysis; format: ADME, organism-based; conditions: in vivo
[2] = Antiproliferative activity against HEK293 cells assessed as cell growth inhibition incubated for 48 hrs by MTT assay; format: toxicity, cell-based; conditions: human
MDA-MB-231 = experiment: Antiproliferative activity against human MDA-MB-231 cells assessed as cell growth inhibition incubated for 48 hrs by MTT assay; format: functional, cell-based; conditions: MDA-MB-231, 48 h
HCT-116 [3] = experiment: Induction of cell cycle arrest in human HCT-116 cells assessed as accumulation at sub-G1 phase at 0.2 uM incubated for 24 hrs by PI staining based flow cytometry (reference value: 2.45 +/- 0.49 %); format: functional
HeLa [4] = experiment: Induction of cell cycle arrest in human HeLa cells assessed as accumulation at G2/M phase at 0.9 uM incubated for 24 hrs by PI staining based flow cytometry (reference value: 24.6 +/- 1.11 %); format: functional
HCT-116 [5] = experiment: Antitumor activity against human HCT-116 cells xenografted in Balb/c-nu nude mouse at 70 mg/kg/day, po treated for 7 days consecutively relative to control; format: functional; conditions: HCT-116, 168 h, time 7 day, read-out: TGI
[6] = target: Cyclin-dependent kinase 5/CDK5 activator 1 (Homo sapiens, UniProt Q00535); experiment: Inhibition of CDK5/p35 (unknown origin) using […] incubated for 40 mins in presence of ATP by Kinase-Glo assay; format: protein-complex assay
Sequence of Cyclin-dependent kinase 5/CDK5 activator 1 (Q00535 whole entry): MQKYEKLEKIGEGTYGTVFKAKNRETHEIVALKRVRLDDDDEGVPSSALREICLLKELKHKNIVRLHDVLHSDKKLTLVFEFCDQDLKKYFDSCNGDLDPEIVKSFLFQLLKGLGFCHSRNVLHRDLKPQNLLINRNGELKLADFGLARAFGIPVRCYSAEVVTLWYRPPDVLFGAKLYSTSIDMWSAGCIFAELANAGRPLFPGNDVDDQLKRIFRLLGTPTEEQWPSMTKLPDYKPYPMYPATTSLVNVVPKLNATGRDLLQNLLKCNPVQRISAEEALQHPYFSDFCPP
Sequence of Cyclin-dependent kinase 5/CDK5 activator 1 (Q15078 whole entry, further chain): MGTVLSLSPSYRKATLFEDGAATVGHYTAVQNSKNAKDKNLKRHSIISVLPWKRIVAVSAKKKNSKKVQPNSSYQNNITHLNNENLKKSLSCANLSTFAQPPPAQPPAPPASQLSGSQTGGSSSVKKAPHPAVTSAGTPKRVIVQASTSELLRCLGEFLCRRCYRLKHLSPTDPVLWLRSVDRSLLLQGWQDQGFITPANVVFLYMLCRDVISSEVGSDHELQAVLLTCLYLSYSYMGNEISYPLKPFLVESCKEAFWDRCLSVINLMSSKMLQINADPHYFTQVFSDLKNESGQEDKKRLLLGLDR

HeLa [7] = experiment: Induction of apoptosis in human HeLa cells assessed as necrotic cells at 0.9 uM incubated for 24 hrs by PI staining based flow cytometry (reference value: 25.5 %); format: functional
HeLa [8] = experiment: Induction of cell cycle arrest at G2/M phase in human HeLa cells assessed as decrease in cyclin B1 level at 1.8 uM by Western blot analysis; format: functional, cell-based; conditions: time <= 48.0 hrs

Cc1cnc(Nc2ccc(S(N)(=O)=O)cc2)nc1Nc1nccs1
half-life [1]: 4 h
IC50 at 48 h [2]: 90100 nM
IC50 (MDA-MB-231): 928 nM
Activity (HCT-116 [3]): 0.56%
Activity (HeLa [4]): 26.41%
inhibition in vivo at 70 mg/kg/day (HCT-116 [5]): 67%
IC50 [6]: 119 nM
Activity (HeLa [7]): 0.81%
Activity (HeLa [8]): Time-dependent-effect
